Reference: US20060030616A1, “Anhydride modified cantharidin analogues useful in the treatment of cancer” (priority 1998, published 2006)

Columns and labels:
[1] = system: L1210 cells; assay: MTT cytotoxicity assay, 72 h; assay type: cell-based, murine; details: L1210, p53 wt; read-out: IC50 (mean ± SE) after 72 h continuous exposure
In short: (§1)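 Absorbance at 540 nm of solubilized MTT formazan measures viable cells after 72 h inhibitor exposure. Cells are plated 24 h ahead to reach exponential growth, with L1210 at 1000 cells/well. IC50 comes from the dose-response of growth between day 0 and day 3.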

[2] = system: 143B cells; assay: MTT cytotoxicity assay, 72 h; assay type: cell-based, human; details: p53 mt, read-out: IC50 (mean ± SE) after 72 h continuous exposure
In short: as §1

[3] = system: HT29 cells; assay: MTT cytotoxicity assay, 72 h; assay type: cell-based, human; details: HT29, p53 mt; read-out: IC50 (mean ± SE) after 72 h continuous exposure
In short: as §1

[4] = system: WiDr cells; assay: MTT cytotoxicity assay, 72 h; assay type: cell-based, human; details: p53 mt, read-out: IC50 (mean ± SE) after 72 h continuous exposure
In short: as §1

[5] = system: HCT116 cells; assay: MTT cytotoxicity assay, 72 h; assay type: cell-based, human; details: HCT116, p53 wt; read-out: IC50 (mean ± SE) after 72 h continuous exposure
In short: as §1

[6] = system: ADDP cells; assay: MTT cytotoxicity assay, 72 h; assay type: cell-based, human; details: p53 mt, read-out: IC50 (mean ± SE) after 72 h continuous exposure
In short: as §1

[7] = system: SW480 cells; assay: MTT cytotoxicity assay, 72 h; assay type: cell-based, human; details: SW480, p53 mt; read-out: IC50 (mean ± SE) after 72 h continuous exposure
In short: as §1

[8] = system: HL60 cells; assay: MTT cytotoxicity assay, 72 h; assay type: cell-based, human; details: HL60, p53 nul; read-out: IC50 (mean ± SE) after 72 h continuous exposure
In short: as §1

[9] = system: HT29 cells; assay: Cell cycle analysis, flow cytometry of propidium iodide stained cells; assay type: cell-based, human; details: 12 h
Description: (§2) The cells are fixed in 70% ethanol and stored at −20° C. until analysis is performed (1-2 weeks). After fixing, the cells are pelleted and incubated in PBS containing propidium iodide ([…]) and RNase A (200 mg/ml) for at least 30 min at room temperature. The samples (2×10^4 events) are analysed using a Becton Dickson FACScan, fluorescence is collected in fluorescence detector 2 (FL2), filter 575/30 nm band pass. Cell cycle distribution is assessed using Cell Quest software (Becton Dickson).
(§3) The ability of the protein phosphatase inhibitors to abrogate the G1 or G2 checkpoint of the cell cycle may be determined by cell cycle analysis using flow cytometry. Briefly, asynchronous cell cultures are harvested 18 h after 6 Gy irradiation and/or 12 h incubation with the protein phosphatase inhibitor. Depending upon the p53 status of the cell line, radiation treatment alone will induce arrest in either G1 and/or G2 phase of the cell cycle.
(§4) Data shown in Table 2 and FIG. 4 show the cell cycle response of L1210, HL60, HT29 and HCT116 cells to cantharidin and the new cantharidin analogues MK-2 and MK-4 after 12 h exposure. In summary, cantharidin and MK-2 produced a similar response and induced G2 arrest in all four cell lines tested. […] HL60 and HCT116 cells. […] The magnitude of the cell cycle arrest induced by these drugs directly correlated with their cytotoxicity in the respective cell lines. […] The cytotoxicity of the […]

[10] = system: HCT116 cells; assay: as above; assay type: cell-based, human
Description: as §2, §3, §4

[11] = system: HL60 cells; assay: as above; assay type: cell-based, human
Description: as §2, §3, §4

`O=C1OC(O)C2C3CCC(O3)C12` (stereo not shown) [MK-4] was tested, and the IC50 [1] was 680 ± 97 µM, the IC50 [2] was 450 µM and the IC50 [3] was 14 µM. The IC50 [4] was 15 ± 3 µM, the IC50 [5] was 78 ± 7 µM and the IC50 [6] was 275 ± 56 µM. For the same molecule, the IC50 [7] was 88 ± 5 µM, the IC50 [8] was 393 ± 103 µM and the “Cell Cycle Distribution, G1” value ([9]; HT29, 50 μM) was 51.4 percentage of total. For the same molecule, the “Cell Cycle Distribution, G2 + M” value ([9]; HT29, 50 μM) was 31.6 percentage of total, the “Cell Cycle Distribution, S” value ([9]; HT29, 50 μM) was 12.3 percentage of total and the “Cell Cycle Distribution, sub G1” value ([9]; HT29, 50 μM) was 4.7 percentage of total. The “Cell Cycle Distribution, G1” value ([9]; HT29, 100 μM) was 52.3 percentage of total, the “Cell Cycle Distribution, G2 + M” value ([9]; HT29, 100 μM) was 29.4 percentage of total and the “Cell Cycle Distribution, S” value ([9]; HT29, 100 μM) was 12.5 percentage of total. For the same molecule, the “Cell Cycle Distribution, sub G1” value ([9]; HT29, 100 μM) was 6.0 percentage of total, the “Cell Cycle Distribution, G1” value ([9]; HT29, 250 μM) was 53.2 percentage of total and the “Cell Cycle Distribution, G2 + M” value ([9]; HT29, 250 μM) was 27.6 percentage of total. For the same molecule, the “Cell Cycle Distribution, S” value ([9]; HT29, 250 μM) was 11.9 percentage of total, the “Cell Cycle Distribution, sub G1” value ([9]; HT29, 250 μM) was 7.0 percentage of total and the “Cell Cycle Distribution, G1” value ([9]; HT29, 500 μM) was 53.7 percentage of total. For the same molecule, the “Cell Cycle Distribution, G2 + M” value ([9]; HT29, 500 μM) was 29.1 percentage of total, the “Cell Cycle Distribution, S” value ([9]; HT29, 500 μM) was 14.1 percentage of total and the “Cell Cycle Distribution, sub G1” value ([9]; HT29, 500 μM) was 3.4 percentage of total. For the same molecule, the Cell cycle remark ([9]; HT29, 500 μM) was “G1 arrest”, the “Cell Cycle Distribution, G1” value ([10]; HCT116, 50 μM, 12 h) was 43.9 percentage of total and the “Cell Cycle Distribution, G2 + M” value ([10]; HCT116, 50 μM, 12 h) was 40.7 percentage of total. For the same molecule, the “Cell Cycle Distribution, S” value ([10]; HCT116, 50 μM, 12 h) was 11.4 percentage of total, the “Cell Cycle Distribution, sub G1” value ([10]; HCT116, 50 μM, 12 h) was 4.5 percentage of total and the “Cell Cycle Distribution, G1” value ([10]; HCT116, 100 μM, 12 h) was 41.4 percentage of total. For the same molecule, the “Cell Cycle Distribution, G2 + M” value ([10]; HCT116, 100 μM, 12 h) was 44.1 percentage of total, the “Cell Cycle Distribution, S” value ([10]; HCT116, 100 μM, 12 h) was 13.6 percentage of total and the “Cell Cycle Distribution, sub G1” value ([10]; HCT116, 100 μM, 12 h) was 2.0 percentage of total. The “Cell Cycle Distribution, G1” value ([10]; HCT116, 250 μM, 12 h) was 36.2 percentage of total, the “Cell Cycle Distribution, G2 + M” value ([10]; HCT116, 250 μM, 12 h) was 46.9 percentage of total and the “Cell Cycle Distribution, S” value ([10]; HCT116, 250 μM, 12 h) was 14.1 percentage of total. The “Cell Cycle Distribution, sub G1” value ([10]; HCT116, 250 μM, 12 h) was 3.9 percentage of total, the “Cell Cycle Distribution, G1” value ([10]; HCT116, 500 μM, 12 h) was 29.0 percentage of total and the “Cell Cycle Distribution, G2 + M” value ([10]; HCT116, 500 μM, 12 h) was 46.5 percentage of total. The “Cell Cycle Distribution, S” value ([10]; HCT116, 500 μM, 12 h) was 15.7 percentage of total, the “Cell Cycle Distribution, sub G1” value ([10]; HCT116, 500 μM, 12 h) was 9.6 percentage of total and the Cell cycle remark ([10]; HCT116, 500 μM, 12 h) was “G2 arrest”. For the same molecule, the “Cell cycle response” value ([10]; HCT116, 12 h exposure) was “G2 arrest”, the “Cell Cycle Distribution, G1” value ([11]; HL60, 50 μM, 12 h) was 44.7 percentage of total and the “Cell Cycle Distribution, G2 + M” value ([11]; HL60, 50 μM, 12 h) was 32.3 percentage of total. For the same molecule, the “Cell Cycle Distribution, S” value ([11]; HL60, 50 μM, 12 h) was 22.3 percentage of total, the “Cell Cycle Distribution, sub G1” value ([11]; HL60, 50 μM, 12 h) was 1.9 percentage of total and the “Cell Cycle Distribution, G1” value ([11]; HL60, 100 μM, 12 h) was 45.3 percentage of total. The “Cell Cycle Distribution, G2 + M” value ([11]; HL60, 100 μM, 12 h) was 30.6 percentage of total, the “Cell Cycle Distribution, S” value ([11]; HL60, 100 μM, 12 h) was 22.6 percentage of total and the “Cell Cycle Distribution, sub G1” value ([11]; HL60, 100 μM, 12 h) was 2.5 percentage of total. For the same molecule, the “Cell Cycle Distribution, G1” value ([11]; HL60, 250 μM, 12 h) was 40.0 percentage of total, the “Cell Cycle Distribution, G2 + M” value ([11]; HL60, 250 μM, 12 h) was 32.0 percentage of total and the “Cell Cycle Distribution, S” value ([11]; HL60, 250 μM, 12 h) was 23.0 percentage of total. For the same molecule, the “Cell Cycle Distribution, sub G1” value ([11]; HL60, 250 μM, 12 h) was 6.0 percentage of total, the “Cell Cycle Distribution, G1” value ([11]; HL60, 500 μM, 12 h) was 27.8 percentage of total and the “Cell Cycle Distribution, G2 + M” value ([11]; HL60, 500 μM, 12 h) was 44.4 percentage of total. For the same molecule, the “Cell Cycle Distribution, S” value ([11]; HL60, 500 μM, 12 h) was 22.8 percentage of total, the “Cell Cycle Distribution, sub G1” value ([11]; HL60, 500 μM, 12 h) was 6.1 percentage of total and the Cell cycle remark ([11]; HL60, 500 μM, 12 h) was “G2 arrest”. For the same molecule, the “Cell cycle response” value ([11]; HL60, 12 h exposure) was “G2 arrest”.
